According to patent US7629318B2, “Immunosuppressant compounds, methods and uses related thereto” (priority 2002, dated 2009):
Square brackets hold non-standard residues; d marks the D form. Peptide text beside a SMILES is read from it. * marks the point of attachment. Tic = O=C(O)[C@@H]1Cc2ccccc2CN1; Cha = N[C@@H](CC1CCCCC1)C(=O)O; NHPhenethyl = c1ccc(CCN*)cc1; Nle = CCCC[C@H](N)C(=O)O

Assays:
[1] = Stability of compounds in human blood plasma; assay type: in vitro ADME
Procedure: (§1) The stability of the peptidomimetic compounds was determined in rat (Charles River Laboratories, Sulzfeld), mouse (Charles River Laboratories, Sulzfeld) and human (Bayerisches Rotes Kreuz, München) blood plasma (E. R. Garrett and M. R. Gardner, J Pharmaceutical Sciences 71 (1982) 14-25).
(§2) Compound stock solutions were diluted into blood plasma to give a final compound concentration of 5 μM and the mixtures were incubated at 37° C. At 0, 6 and 24 hours 1 ml samples were drawn and the plasma proteins were precipitated by the addition of 3 ml acetonitrile p.a. and whirlmixing. The precipitate was pelleted by centrifugation at 2000 g for 5 minutes. The supernatant was evaporated off to dryness and the residue was reconstituted in 400 μl 50% acetonitrile, 0.1% TFA in water.
(§3) PBS controls were prepared for unstable compounds accordingly.

[2] = Stability of compounds in rat blood plasma; assay type: in vitro ADME
Procedure: as §1, §2, §3

[3] = target: DR4Dw4 (DRA1*0101 DRB1*0401) (Homo sapiens, UniProt P01903+P01911, A100K/A169T/F76Y/I96L/K127E/L162R/M171V/N62H/P40V/Q125Y/R42H/S133A/S149N/S66Y/V115G/V209L/W38E); test: Competitive binding to MHC-II protein DR4Dw4
Procedure: (§4) Interaction mixtures lacking the peptidomimetic compound and both peptide mimetic compound and MHC-II were used as positive and negative controls, respectively. All interaction mixtures were set up in duplicates and were incubated for 16 hours at room temperature.
(§5) After washing with PBS, 60 μl of the MHC-II-compound interaction mixtures were transferred from the interaction plate to the appropriate wells of the capture plate and incubated for 2 h at 4° C. The wells were washed six times with 200 μl/well of cooled (4 to 8° C.) 1×DELFIA wash (Wallac-ADL-GmbH, Freiburg), incubated with 100 μl of cooled Europium-streptavidin conjugate (Wallac-ADL-GmbH, Freiburg; diluted 1/1000 with DELFIA assay buffer) for 30 minutes at 4° C., again washed six times with cooled 1×DELFIA wash and, finally, incubated with 200 μl cooled DELFIA enhancement solution (Wallac-ADL-GmbH, Freiburg) for one hour at room temperature before reading the time-resolved europium fluorescence at λex Eu^3+: 340 nm and λem Eu^3+: 613 (615) nm (Wallac Victor^2 1420 Multilabel Counter, Wallac-ADL-GmbH, Freiburg).

[4] = system: T-cell proliferation, lymph node cells of chimeric 0401-IE transgenic mice; conditions: DR4-LN
Procedure: The compounds were tested as follows to inhibit the proliferative T cell response of antigen-primed lymph node cells from mice carrying a chimeric mouse-human class II transgene with an RA-associated peptide binding site, and lack murine class II molecules (Muller et al., 1990; Woods et al., 1994; Current Protocols in Immunology, Vol. 2, 7.21; Ito et al., 1996). Here, the immunization takes place in vivo, but the inhibition and readout are ex vivo. […] These mice lack murine MHC class II, and thus, all Th responses are channelled through a single human RA-associated MHC class II molecule (Ito et al. 1996). These transgenic mice represent a model for testing human class II antagonists.
1.5×10^5 cells are incubated in 0.2 ml wells of 96-well tissue culture plates in the presence of ovalbumin (30 μg per well—half-maximal stimulatory concentration) and a dilution series of the compound under test (from around 0.1 to 200 uM) in serum free HL-1 medium containing 2 mM L-glutamine and 0.1 g/l Kanamycin for three days. Antigen specific proliferation is measured by 3H-methyl-thymidine (1 μCi/well) incorporation during the last 16 h of culture (Falcioni et al., 1999). Cells are harvested, and 3H incorporation measured using a scintillation counter (TopCount, Wallac Finland).

[5] = Stability of compounds in mouse blood plasma; assay type: in vitro ADME
Procedure: as §1, §2, §3

[6] = target: DR1 (DRA1*0101 DRB1*0101) (Homo sapiens, UniProt P01903+P01911, A100R/D57E/F55L/F60I/F76Y/I96L/L162R/M171V/P40L/Q125E/R42F/V115G/Y59C); test: Competitive binding to MHC-II protein DR1; conditions: Protein binding IC50 (nM) 0101, 0101
Procedure: as §4, §5

[7] = system: T cell activation from 0404(DR14) chimeric MHCII-mice; test: In vivo inhibition of T cell activation by co-immunisation, DR14 mice immunised with OVA; parameters: species or system mouse; % Reduction of response to PPD(OVA): concentration or dose not given beside the values; conditions: for % Reduction of response to OVA: DR14 mice co-immunised with OVA plus compound, mean % inhibition from the control over 3 concentrations of antigen (6.7, 20 and 60 ug); for % Reduction of response to PPD(OVA): specificity control: response to PPD in the same cell pool, OVA co-immunised mice
From the text: Mouse strains DR4 and DR14 carry chimeric MHC-II transgenes that encode the N-terminal domains of the respective DR molecules (forming the peptide binding site) and the remaining (2nd extracellular domains, transmembrane and intracytoplasmic domains) of the murine class II molecule I Ed. These strains are deficient of other murine class II, and thus, all helper T cell responses are triggered by peptides presented in the respective human MHC-II binding site. As an initial in vivo test of subject inhibitors designed to bind to DR, DR-transgenic mice were co-immunized with a pre-defined dose of protein antigen and different amounts of the compound antagonist to be tested. In this set-up, both antigen and compound were emulsified together in complete Freund's adjuvant (CFA), and thus, a direct competition between the two components for presentation by DR was tested. Readout of the assay is ex vivo antigen-specific activation of T cells from regional lymph nodes explanted 9 days after co-immunization. In a typical experiment, antigen dose-response was investigated, and the curves from mice immunized with antigen were compared to those from mice co-immunized with antigen+compound. The dose response curves were generated using lymph node cells pooled at equal numbers from 2-3 mice per experimental group. The experimental system also permits assessment of inherent antigenicity of the compound antagonist. This was done by setting up a dose-response study from the same cell pool using different concentrations of the compund under investigation instead of the antigen. As a specificity control, the response to Purified Protein Derivative (PPD), the major protein component of CFA, was tested in the same cell pool.
All Gpg conataining compounds have significant immunosupressive properties in one or both of the in-vivo models. Gpg-containing compounds also show improved activity or improved specificity over the Arg-containing equivilent. Further, compounds according to Formula I show activity in this assay.
Compounds of the invention were injected as an Emulsion prepared using CFA (Bacto Adjuvant Complete H37 Ra, Difco, Order-No. 3113-60); proteins 10 mg/ml in PBS, inhibitors 5 μM in 10% DMSO. CFA, PBS, antigen, and inhibitor were placed in the barrel of a 5-ml syringe (total volume not more than 1 mL). The mixture was sonicated at an amplitude less than 40% (30-35%) for two separated 15 s periods. The emulsion should seem to be hard and not liquid at this point. A drop of emulsion placed on the surface of water should not melt. The resulting emulsion was pushed through the needle into a 1 ml syringe with a needle (Gr.18, 26G×1″), and air bubbles were removed. Mice were co-immunized with 50 μg protein and 210 nM compound antagonist in final 100 μl emulsion into the tail base. Antigen+Compound and CFA are mixed 1:1 vol/vol. The best results are obtained using DR 4 mice immunised with HEL and DR 14 mice immunized with OVA.
Mice were injected at the tail-base as follows: Holding the tail of a mouse with thumb and middle finger, the index finger was placed under the base of the mouse's tail. The needle of the syringe was inserted about 1.5 cm from the tail base (hairy end) under the skin and pushed about 1 cm into the tail. 100 μl emulsion was injected into the mouse. After 9 days, mice were killed and lymph nodes removed.
The inhibitory effect of the candidate compounds on T-cell activation was tested using T-cells and antigen-presenting cells isolated from the lymph nodes of chimeric DR4-IE transgenic mice (Taconic, USA) previously co-immunized with hen egg lysozyme plus compound, or DR14-IE transgenic mice co-immunized with ovalbumin plus compound according to standard procedures (Adorini et al., 1988, Mueller et al., 1990; Current Protocols in Immunology, Vol. 2, 7.21; Ito et al., 1996). […]

[8] = target: DR4Dw14 (DRA1*0101 DRB1*0404) (Homo sapiens, UniProt P01903+P01911, A100R/A169T/F76Y/I96L/K127E/L162R/M171V/N62H/P40V/Q125Y/R42H/S133A/S149N/S66Y/V209L/W38E); test: Competitive binding to MHC-II protein DR4Dw14; conditions: 0404; read-out: Protein binding IC50 (nM) 0404
Procedure: as §4, §5

[9] = target: Cathepsin B1 (EC 3.4.22.1 from bovine spleen) (Bos taurus, UniProt P07688); conditions: Cathepsin B, 4 h

Compound | Stability (Arbitrary units) Human 6 h [1] [Arbitrary units] | Stability (Arbitrary units) Human 24 h [1] [Arbitrary units] | Stability (Arbitrary units) Rat 6 h [2] [Arbitrary units] | IC50 [3] [µM] | Immunsupressive assays DR4-LN (Max) % Inhibition ([4]; maximal inhibition) [%] | IC50 ([4]; read-out: Immunsupressive assays DR4-LN (IC50)) [µM] | Stability (Arbitrary units) Mouse 6 h [5] [Arbitrary units] | Stability (Arbitrary units) Mouse 24 h [5] [Arbitrary units] | IC50 [6] [nM] | % Reduction of response to OVA [7] [%] | % Reduction of response to PPD(OVA) [7] [%] | IC50 [8] [nM] | Stability (Arbitrary units) Cath B 4 h [9] [Arbitrary units]
CCCC[C@H](NC(=O)[C@@H]1Cc2ccccc2CN1C(=O)[C@H](CCCNC(=N)N)NC(=O)[C@H](CC1CCCCC1)NC(C)=O)C(=O)NCCc1ccccc1 [Compound P82, Ac-Cha-Arg-Tic-Nle-N(H)CH2CH2Ph] (Ac-[Cha]R[Tic][Nle]-NHPhenethyl) | 94 | 72 | 65 | 18 | 100 | 27 | 79 | 31 | 3100 | 25 | 5 | 14000 | 105
Ac-Hfe-Gpg-Tic-Nle-βPhPro-[S(oxaz)L]-NMe2 [Compound P57] |  |  |  |  |  |  |  |  |  | 52.6 | 52.4 |  | 
